Measurements as given in PubChem BioAssay (NCI).
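Cultured in 96-well plates, cells were exposed to test compound for 48 hours across five concentrations. TGI is the concentration that stops growth completely.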

Assays:
Assay in all cases: growth of human tumour cells (NCI), 48 h
A498 renal = tested on: A498 renal
M14 melanoma = tested on: M14 melanoma
UACC-257 melanoma = tested on: UACC-257 melanoma
UACC-62 melanoma = tested on: UACC-62 melanoma
KM12 colon = tested on: KM12 colon
TK-10 renal = tested on: TK-10 renal
SW-620 colon = tested on: SW-620 colon
K-562 leukemia = tested on: K-562 leukemia
SK-MEL-5 melanoma = tested on: SK-MEL-5 melanoma
SR leukemia = tested on: SR leukemia
786-0 renal = tested on: 786-0 renal
T-47D breast = tested on: T-47D breast
HS 578T breast = tested on: HS 578T breast
U251 CNS = tested on: U251 CNS
CAKI-1 renal = tested on: CAKI-1 renal
RXF 393 renal = tested on: RXF 393 renal
EKVX NSCLC = tested on: EKVX NSCLC
MDA-MB-231 breast = tested on: MDA-MB-231 breast
A549 NSCLC = tested on: A549 NSCLC
HOP-92 NSCLC = tested on: HOP-92 NSCLC
CCRF-CEM leukemia = tested on: CCRF-CEM leukemia
BT-549 breast = tested on: BT-549 breast
HCT-116 colon = tested on: HCT-116 colon
IGROV1 ovarian = tested on: IGROV1 ovarian
DU-145 prostate = tested on: DU-145 prostate
SNB-75 CNS = tested on: SNB-75 CNS
MALME-3M melanoma = tested on: MALME-3M melanoma
MCF7 breast = tested on: MCF7 breast
PC-3 prostate = tested on: PC-3 prostate
SNB-19 CNS = tested on: SNB-19 CNS
SF-295 CNS = tested on: SF-295 CNS
OVCAR-5 ovarian = tested on: OVCAR-5 ovarian
ACHN renal = tested on: ACHN renal
COLO 205 colon = tested on: COLO 205 colon
MDA-N = tested on: MDA-N
HT29 colon = tested on: HT29 colon
LOX IMVI melanoma = tested on: LOX IMVI melanoma
OVCAR-8 ovarian = tested on: OVCAR-8 ovarian
NCI/ADR-RES ovarian = tested on: NCI/ADR-RES ovarian
HOP-62 NSCLC = tested on: HOP-62 NSCLC
SF-268 CNS = tested on: SF-268 CNS
NCI-H522 lung = tested on: NCI-H522 lung
RPMI-8226 leukemia = tested on: RPMI-8226 leukemia
SN12C renal = tested on: SN12C renal
NCI-H23 lung = tested on: NCI-H23 lung
NCI-H226 lung = tested on: NCI-H226 lung
MDA-MB-435 = tested on: MDA-MB-435
MOLT-4 leukemia = tested on: MOLT-4 leukemia
SK-MEL-28 melanoma = tested on: SK-MEL-28 melanoma
HL-60(TB) leukemia = tested on: HL-60(TB) leukemia
OVCAR-4 ovarian = tested on: OVCAR-4 ovarian
UO-31 renal = tested on: UO-31 renal
SF-539 CNS = tested on: SF-539 CNS
SK-MEL-2 melanoma = tested on: SK-MEL-2 melanoma
OVCAR-3 ovarian = tested on: OVCAR-3 ovarian
HCT-15 colon = tested on: HCT-15 colon
NCI-H460 lung = tested on: NCI-H460 lung
SK-OV-3 ovarian = tested on: SK-OV-3 ovarian

## Cc1cn(C2CC(Br)C(COC(c3ccccc3)(c3ccccc3)c3ccccc3)O2)c(=O)[nH]c1=O (stereo not drawn)
A498 renal
  TGI: 29.9 µM
M14 melanoma
  TGI: 26.7 µM
UACC-257 melanoma
  TGI: 29.8 µM
UACC-62 melanoma
  TGI: 24.8 µM
KM12 colon
  TGI: 19.4 µM
TK-10 renal
  TGI: 28 µM
SW-620 colon
  TGI: 28.5 µM
K-562 leukemia
  TGI: > 100 µM
SK-MEL-5 melanoma
  TGI: 25.5 µM
SR leukemia
  TGI: 23.1 µM
786-0 renal
  TGI: 27.4 µM
T-47D breast
  TGI: 26.3 µM
HS 578T breast
  TGI: 32.8 µM
U251 CNS
  TGI: 24.9 µM
CAKI-1 renal
  TGI: 29.2 µM
RXF 393 renal
  TGI: 23.5 µM
EKVX NSCLC
  TGI: 28.9 µM
MDA-MB-231 breast
  TGI: 33.5 µM
A549 NSCLC
  TGI: 23.8 µM
HOP-92 NSCLC
  TGI: 24.6 µM
CCRF-CEM leukemia
  TGI: 24.1 µM
BT-549 breast
  TGI: 24.4 µM
HCT-116 colon
  TGI: 20.5 µM
IGROV1 ovarian
  TGI: 27.9 µM
DU-145 prostate
  TGI: 27.7 µM
SNB-75 CNS
  TGI: 24.3 µM
MALME-3M melanoma
  TGI: 32.4 µM
MCF7 breast
  TGI: 22.4 µM
PC-3 prostate
  TGI: 17.7 µM
SNB-19 CNS
  TGI: 29.9 µM
SF-295 CNS
  TGI: 21.7 µM
OVCAR-5 ovarian
  TGI: 30.4 µM
ACHN renal
  TGI: 26.8 µM
COLO 205 colon
  TGI: 27.1 µM
MDA-N
  TGI: 28.2 µM
HT29 colon
  TGI: 23.4 µM
LOX IMVI melanoma
  TGI: 24.4 µM
OVCAR-8 ovarian
  TGI: 23.2 µM
NCI/ADR-RES ovarian
  TGI: 28.9 µM
HOP-62 NSCLC
  TGI: 31 µM
SF-268 CNS
  TGI: 28.4 µM
NCI-H522 lung
  TGI: 19.8 µM
RPMI-8226 leukemia
  TGI: 20.6 µM
SN12C renal
  TGI: 27.8 µM
NCI-H23 lung
  TGI: 20 µM
NCI-H226 lung
  TGI: 34.2 µM
MDA-MB-435
  TGI: 30.1 µM
MOLT-4 leukemia
  TGI: 28.8 µM
SK-MEL-28 melanoma
  TGI: 30.3 µM
HL-60(TB) leukemia
  TGI: > 100 µM
OVCAR-4 ovarian
  TGI: 25.8 µM
UO-31 renal
  TGI: 19.5 µM
SF-539 CNS
  TGI: 31.6 µM
SK-MEL-2 melanoma
  TGI: 28.7 µM
OVCAR-3 ovarian
  TGI: 25.2 µM

## NS(=O)(=O)c1ccc(N=Nc2ncccc2O)cc1
A498 renal
  TGI: > 100 µM
M14 melanoma
  TGI: > 100 µM
UACC-257 melanoma
  TGI: > 100 µM
UACC-62 melanoma
  TGI: > 100 µM
KM12 colon
  TGI: > 100 µM
TK-10 renal
  TGI: > 100 µM
SW-620 colon
  TGI: > 100 µM
K-562 leukemia
  TGI: > 100 µM
SK-MEL-5 melanoma
  TGI: > 100 µM
SR leukemia
  TGI: 71.9 µM
786-0 renal
  TGI: > 100 µM
T-47D breast
  TGI: > 100 µM
HS 578T breast
  TGI: > 100 µM
U251 CNS
  TGI: > 100 µM
CAKI-1 renal
  TGI: > 100 µM
RXF 393 renal
  TGI: > 100 µM
EKVX NSCLC
  TGI: > 100 µM
MDA-MB-231 breast
  TGI: > 100 µM
A549 NSCLC
  TGI: > 100 µM
HOP-92 NSCLC
  TGI: > 100 µM
BT-549 breast
  TGI: > 100 µM
HCT-116 colon
  TGI: > 100 µM
IGROV1 ovarian
  TGI: > 100 µM
DU-145 prostate
  TGI: > 100 µM
SNB-75 CNS
  TGI: > 100 µM
MALME-3M melanoma
  TGI: > 100 µM
MCF7 breast
  TGI: > 100 µM
HCT-15 colon
  TGI: > 100 µM
PC-3 prostate
  TGI: > 100 µM
SNB-19 CNS
  TGI: > 100 µM
NCI-H460 lung
  TGI: > 100 µM
SF-295 CNS
  TGI: > 100 µM
OVCAR-5 ovarian
  TGI: > 100 µM
ACHN renal
  TGI: > 100 µM
COLO 205 colon
  TGI: > 100 µM
SK-OV-3 ovarian
  TGI: > 100 µM
MDA-N
  TGI: > 100 µM
HT29 colon
  TGI: > 100 µM
LOX IMVI melanoma
  TGI: > 100 µM
OVCAR-8 ovarian
  TGI: > 100 µM
NCI/ADR-RES ovarian
  TGI: > 100 µM
HOP-62 NSCLC
  TGI: > 100 µM
SF-268 CNS
  TGI: > 100 µM
NCI-H522 lung
  TGI: > 100 µM
RPMI-8226 leukemia
  TGI: > 100 µM
SN12C renal
  TGI: > 100 µM
NCI-H23 lung
  TGI: > 100 µM
NCI-H226 lung
  TGI: > 100 µM
MDA-MB-435
  TGI: > 100 µM
MOLT-4 leukemia
  TGI: 87.8 µM
SK-MEL-28 melanoma
  TGI: > 100 µM
HL-60(TB) leukemia
  TGI: > 100 µM
OVCAR-4 ovarian
  TGI: > 100 µM
UO-31 renal
  TGI: > 100 µM
SF-539 CNS
  TGI: > 100 µM
SK-MEL-2 melanoma
  TGI: > 100 µM
OVCAR-3 ovarian
  TGI: > 100 µM

## Cc1ccc(C2(C)CC/C(=N/N=C3/CCC(C)(c4ccc(C)c(C)c4)c4cc(C)c(C)cc43)c3cc(C)c(C)cc32)cc1C (stereo not drawn)
A498 renal
  TGI: > 100 µM
M14 melanoma
  TGI: > 100 µM
UACC-62 melanoma
  TGI: > 100 µM
KM12 colon
  TGI: > 100 µM
TK-10 renal
  TGI: > 100 µM
SW-620 colon
  TGI: > 100 µM
K-562 leukemia
  TGI: > 100 µM
SK-MEL-5 melanoma
  TGI: > 100 µM
SR leukemia
  TGI: > 100 µM
786-0 renal
  TGI: > 100 µM
T-47D breast
  TGI: > 100 µM
HS 578T breast
  TGI: > 100 µM
U251 CNS
  TGI: > 100 µM
CAKI-1 renal
  TGI: > 100 µM
RXF 393 renal
  TGI: > 100 µM
EKVX NSCLC
  TGI: > 100 µM
MDA-MB-231 breast
  TGI: > 100 µM
A549 NSCLC
  TGI: > 100 µM
HOP-92 NSCLC
  TGI: > 100 µM
BT-549 breast
  TGI: > 100 µM
HCT-116 colon
  TGI: > 100 µM
IGROV1 ovarian
  TGI: > 100 µM
DU-145 prostate
  TGI: > 100 µM
SNB-75 CNS
  TGI: > 100 µM
MALME-3M melanoma
  TGI: > 100 µM
MCF7 breast
  TGI: > 100 µM
HCT-15 colon
  TGI: > 100 µM
PC-3 prostate
  TGI: > 100 µM
SNB-19 CNS
  TGI: > 100 µM
NCI-H460 lung
  TGI: > 100 µM
SF-295 CNS
  TGI: > 100 µM
OVCAR-5 ovarian
  TGI: > 100 µM
ACHN renal
  TGI: > 100 µM
COLO 205 colon
  TGI: > 100 µM
SK-OV-3 ovarian
  TGI: > 100 µM
MDA-N
  TGI: > 100 µM
HT29 colon
  TGI: > 100 µM
LOX IMVI melanoma
  TGI: > 100 µM
OVCAR-8 ovarian
  TGI: > 100 µM
NCI/ADR-RES ovarian
  TGI: > 100 µM
HOP-62 NSCLC
  TGI: > 100 µM
SF-268 CNS
  TGI: > 100 µM
NCI-H522 lung
  TGI: > 100 µM
RPMI-8226 leukemia
  TGI: > 100 µM
SN12C renal
  TGI: > 100 µM
NCI-H23 lung
  TGI: > 100 µM
NCI-H226 lung
  TGI: > 100 µM
MDA-MB-435
  TGI: > 100 µM
MOLT-4 leukemia
  TGI: > 100 µM
SK-MEL-28 melanoma
  TGI: > 100 µM
HL-60(TB) leukemia
  TGI: > 100 µM
OVCAR-4 ovarian
  TGI: > 100 µM
UO-31 renal
  TGI: > 100 µM
SF-539 CNS
  TGI: > 100 µM
SK-MEL-2 melanoma
  TGI: > 100 µM
OVCAR-3 ovarian
  TGI: > 100 µM
